Assay results published in patent US4185119A, “Antiallergic methods” (priority 1977, dated 1980).

How the values were obtained:
[1] = Antiallergic action (summary of tests); format: in vivo; conditions: summary statement
Text: Test: Antiallergic Action
(2) Inhibition test of P.C.A. (Passive Cutaneous Anaphylaxis) reaction
(3) Inhibition test of anaphylactic asthma in guinea-pigs

[2] = cited from earlier work
[3] = test system: P.C.A. reaction in Donryu strain rats; assay: Inhibition of P.C.A. reaction in Donryu strain rats, rat reaginic antiserum against egg albumin; format: in vivo; conditions: Donryu rat (Table 2-II)
Experimental: (a) Rat reaginic antiserum against egg albumin
A solution of egg albumin (2 mg) in B. pertussis-diphtheria-tetanus mixed vaccine (1 ml.) (made by Takeda Chemical Industries Ltd.) was mixed with an equal volume of incomplete adjuvant (made by Difco Laboratories) to give an emulsion. The emulsion was given subcutaneously in a single dose of 1 ml. divided equally (0.25 ml.) to the four foot pads of male S.D. (Sprague-Dawley) strain rats aged 8 weeks, each weighing about 300 g.
Five days after the administration, a solution of egg albumin (0.5 mg.) in B. pertussis-diphtheria-tetanus mixed vaccine (0.5 ml.) was further given intramuscularly in a single dose of 0.5 ml. divided equally (0.25 ml.) to 2 places of thigh of the same rats.
Three days after the second administration, blood samples were collected from femoral artery of the rats and allowed to stand at ambient temperature for 5 hours. The separated supernatant was centrifuged at 4° C. (10,000 r.p.m.× 1 hour). The antisera thus obtained were stored at -80° C. prior to use.
(§1) (b) Inhibitory effect on P.C.A. reaction in Donryu strain rat
(§2) The following tests were carried out in substantially the same manner as described in the above item (2)-(a).
(§3) (i) Test compound: N:methyllaurotetanine hydrochloride
(§4) Test animal: Male Donryu strain rats aged 8 weeks, weighing about 130 g.
(§5) Challenge: A normal saline (0.3 ml.) containing egg albumin (4.5 mg.) and Evans blue (1.5 mg.).
(§6) (ii) Test commpound: glaucine or boldine
(§7) Test animal: Male Donryu strain rats aged 8 weeks, weighing 140-150 g.
(§8) Challenge: the same as the above item (b)-(i).

[4] = Apomorphine-like side effect (summary of side effect tests); format: in vivo; conditions: summary statement
Text: (i) Rotational behavior inducing action in rats unilaterally lesioned in substantia nigra,
(ii) Gnawing behavior including action in rats, and
(iii) Vomiting-inducing action in dogs

[5] = Acute toxicity in mice; conditions: mouse, in vivo, ip; intraperitoneal, male I.C.R. mice, survivals at one week
Experimental: Test: Acute Toxicity in Mice
A normal saline containing each of the test compound mentioned below and 0.5% carboxymethylcellulose was given intraperitoneally to male I.C.R. (Institute of Cancer Research) strain mice aged 5 weeks, weighing 33-35 g. LD50 values were calculated from the survivals of mice at one week after the administration of the test compound.

[6] = test system: P.C.A. reaction in I.C.R. strain mice; assay: Inhibition test of P.C.A. reaction in I.C.R. strain mice, rat hyperimmune antiserum against egg albumin; format: in vivo; conditions: intraperitoneal, I.C.R. mouse (Table 3-II)
Experimental: (c) Inhibition test of P.C.A. reaction in I.C.R. (Institute of Cancer Research) strain mice
(i) Test compound: N-methyllaurotetanine hydrochloride
Fifteen male I.C.R. strain mice aged 7 weeks, weighing about 35 g were divided equally into 3 groups. Each of the groups was composed of 5 mice, (in case of intraperioneal administration of the test compound to the mouse, each of the groups was composed of […]).
Ten-hold diluted solution (0.05 ml.) of the rat hyperimmune antiserum against egg albumin was given intracutaneously to the depilated back of each mouse of Group I and Group II, respectively. On the other hand, a rat normal serum (0.05 ml.) was given intracutaneously to the depilated back of each mouse of Group III. Three hours after the administration, a normal saline (0.1 ml.) containing egg albumin (1.5 mg.) and Evans blue (0.5 mg.) was given intravenously to each mouse of Groups I-III in order to bring about P.C.A., respectively.
Beforehand, 3 hours and 1 hours before the admnistration to bring about P.C.A., a normal saline (0.3 ml.) containing the prescribed amount of N-methyllaurotetanine hydrochloride and carboxymethylcellulose (0.5%) was given orally or intraperitoneally to each mouse of Group I, and a normal saline (0.3 ml.) containing only carboxymethylcellulose (0.5%) was given orally or intraperitoneally to each mouse of Group II.
The procedure followed by the above, was carried out in substantially the same manner as described in the above item (2)-(a). […]

[7] = test system: P.C.A. reaction in Donryu strain rats; assay: Inhibition of P.C.A. reaction in Donryu strain rats, rat hyperimmune antiserum against egg albumin; format: in vivo; conditions: Donryu rat (Table 2-II)
Experimental: (b) Rat hyperimmune antiserum against egg albumin
A solution of egg albumin (20 mg.) in normal saline (1 ml.) was mixed with complete adjuvant (1 ml.) (made by Difco Laboratories) to given an emulsion. The emulsion was subcutaneously given in a single dose of 1 ml. divided equally (0.25 ml.) to the four pads of male S.D. strain rats aged 6 weeks, each weighing about 200 g. (The first immunization).
One week after the administration, an emulsion which was prepared by mixing a solution of egg albumin (10 mg.) in normal saline (1 ml.) with complete adjuvant (1 ml.) was further given subcutaneously (at 3 places) and intramuscularly (at 1 place) in a single dose of 1 ml. divided equally (0.25 ml.) to thigh of the same rats. (The second immunization).
Three weeks after the second administration, a solution of egg albumin (1 mg.) in normal saline (1 ml.) was further given intracutaneously in a single dose of 0.3 ml. divided equally (0.1 ml.) to 3 places of the same rats. (The third immunization).
One week after the third administration, blood samples were collected from rats and treated in substantially the same manner as described in the above item (a). The antisera thus obtained were stored at -80° C. prior to use.
Further, an inhibition test on P.C.A. reaction using the rat hyperimmuneantiserum against egg albumin was carried out in substantially the same manner as described in the above, excepting that the intravenous administration to bring about P.C.A. was carried out at 5.5 hours after the administration of the serum and antiserum. And inhibitory effect on the P.C.A. reaction was also calculated in substantially the same manner as described in the above.
as §1, §2, §3, §4, §5, §6, §7, §8

Compound	antiallergic effects [1]	diuretic activity ([2]; THE MERCK INDEX EIGHTH EDITION, Page 159 (1968))	Inhibitory effect on P.C.A. reaction ([3]; intraperitoneal, 66 mg/kg)	apomorphine-like side effect [4]	LD50 at 168 h [5]	Inhibitory effect on P.C.A. reaction ([6]; 30 mg/kg)	Inhibitory effect on P.C.A. reaction ([7]; intraperitoneal, 66 mg/kg)	adrenolytic action and antitussive properties ([2]; Chemical Abstracts Vol. 68, 94521Z (1968))	Inhibitory effect on P.C.A. reaction ([3]; intraperitoneal, 20 mg/kg)	Inhibitory effect on P.C.A. reaction ([3]; intraperitoneal, 60 mg/kg)	Inhibitory effect on P.C.A. reaction ([3]; oral, 50 mg/kg)	Inhibitory effect on P.C.A. reaction ([3]; oral, 100 mg/kg)	Inhibitory effect on P.C.A. reaction ([3]; oral, 200 mg/kg)	Inhibitory effect on P.C.A. reaction ([6]; 10 mg/kg)	Inhibitory effect on P.C.A. reaction ([7]; intraperitoneal, 20 mg/kg)	Inhibitory effect on P.C.A. reaction ([7]; intraperitoneal, 60 mg/kg)	Inhibitory effect on P.C.A. reaction ([7]; oral, 50 mg/kg)	Inhibitory effect on P.C.A. reaction ([7]; oral, 100 mg/kg)	Inhibitory effect on P.C.A. reaction ([7]; oral, 200 mg/kg)	curariform activity ([2]; Japanese Patent Publication No. 24092/1961)
COc1cc2c(cc1O)C[C@H]1c3c(cc(O)c(OC)c3-2)CCN1C [Boldine, boldine]	much superior antiallergic effects	diuretic activity	40%	without apomorphine-like side effect	145 mg/kg	20%	30%													
COc1cc2c(cc1OC)-c1c(OC)c(OC)cc3c1[C@H](C2)N(C)CC3 [Glaucine, glaucine]	much superior antiallergic effects			without apomorphine-like side effect	212 mg/kg	60%		adrenolytic action and antitussive properties	60%	95%	70%	80%	95%	50%	50%	85%	60%	80%	90%	
COc1cc2c(cc1O)CC1c3c(cc(OC)c(OC)c3-2)CCN1C (centres unmarked) [N-methyllaurotetanine]	much superior antiallergic effects			without apomorphine-like side effect																curariform activity
